The record followed here is PMC4304843, “Human Mitochondrial Hsp70 (Mortalin): Shedding Light on ATPase Activity, Interaction with Adenosine Nucleotides, Solution Structure and Domain Organization” (PLoS ONE, 2015).

What is called Kd is a measure of binding affinity in units of concentration. A lower Kd goes with tighter binding. What is called Km is the concentration of substrate that gives half-maximal velocity.

Assay [1] concerns the target T1, human mortalin (mtHsp70, GRP75, HspA9, PBP74) (Homo sapiens, UniProt P38646).
T1 construct: monomeric SEC fraction, alkaline phosphatase treated
The assay can be described thus: isothermal titration calorimetry. Type of assay: binding.

The next assay addresses T2, human Hsp70-1A (Homo sapiens, UniProt P0DMV8).
T2 construct: gene HSPA1A; recombinant, expressed in E. coli BL21(DE3) as previously described
The assay can be described thus: ATPase, EnzChek phosphate assay, Michaelis-Menten fit. Type of assay: biochemical. Particulars: TKP buffer without phosphate pH 7.5, 2 mM Mg2+, 37°C, no co-chaperone. An excerpt:
ATPase, EnzChek phosphate assay, Michaelis-Menten fit on human Hsp70-1A

T1 sequence (P38646 47-679): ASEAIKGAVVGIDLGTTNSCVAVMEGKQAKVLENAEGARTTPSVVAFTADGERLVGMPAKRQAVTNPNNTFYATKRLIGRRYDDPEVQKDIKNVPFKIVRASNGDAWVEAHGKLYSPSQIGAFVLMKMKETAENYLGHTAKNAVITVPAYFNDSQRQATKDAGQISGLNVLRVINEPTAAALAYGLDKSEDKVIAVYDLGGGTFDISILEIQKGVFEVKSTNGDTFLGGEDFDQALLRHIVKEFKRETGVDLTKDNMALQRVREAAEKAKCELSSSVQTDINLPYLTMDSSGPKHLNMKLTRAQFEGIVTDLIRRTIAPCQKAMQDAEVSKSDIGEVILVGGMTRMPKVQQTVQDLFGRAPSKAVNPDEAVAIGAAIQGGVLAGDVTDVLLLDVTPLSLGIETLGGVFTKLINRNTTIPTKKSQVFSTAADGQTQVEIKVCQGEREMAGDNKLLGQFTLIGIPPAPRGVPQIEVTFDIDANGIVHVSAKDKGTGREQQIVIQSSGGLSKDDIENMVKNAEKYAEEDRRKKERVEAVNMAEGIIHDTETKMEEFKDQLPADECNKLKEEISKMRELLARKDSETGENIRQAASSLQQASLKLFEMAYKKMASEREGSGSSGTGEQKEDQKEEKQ
T2 sequence (P0DMV8 2-641): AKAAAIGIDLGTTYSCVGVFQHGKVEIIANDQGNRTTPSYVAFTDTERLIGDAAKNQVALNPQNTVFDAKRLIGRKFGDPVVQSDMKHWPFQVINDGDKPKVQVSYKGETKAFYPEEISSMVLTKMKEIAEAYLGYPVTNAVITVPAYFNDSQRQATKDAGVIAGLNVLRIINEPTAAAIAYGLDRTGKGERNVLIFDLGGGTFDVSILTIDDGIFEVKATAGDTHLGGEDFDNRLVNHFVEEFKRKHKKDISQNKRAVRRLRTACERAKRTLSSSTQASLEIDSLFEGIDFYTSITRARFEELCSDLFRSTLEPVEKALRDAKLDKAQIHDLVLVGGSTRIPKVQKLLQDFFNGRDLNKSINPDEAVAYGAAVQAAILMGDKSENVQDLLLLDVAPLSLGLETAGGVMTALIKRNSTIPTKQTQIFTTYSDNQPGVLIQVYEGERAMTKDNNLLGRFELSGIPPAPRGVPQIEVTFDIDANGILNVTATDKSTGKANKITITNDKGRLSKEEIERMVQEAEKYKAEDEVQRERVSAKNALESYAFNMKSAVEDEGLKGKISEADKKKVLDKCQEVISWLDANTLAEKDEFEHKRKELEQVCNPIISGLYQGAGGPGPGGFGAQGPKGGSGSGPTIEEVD

Consider `Nc1ncnc2c1ncn2[C@@H]1O[C@H](COP(=O)(O)OP(=O)(O)OP(=O)(O)O)[C@@H](O)[C@H]1O` [ATP], for which, in assay [1], the affinity, expressed as Kd, was 1.1 ± 0.1 µM. Also, the Km at human Hsp70-1A turned out to be 270 ± 40 µM.
As to `Nc1ncnc2c1ncn2[C@@H]1O[C@H](COP(=O)(O)OP(=O)(O)O)[C@@H](O)[C@H]1O` [ADP], the Kd in assay [1] worked out at 2.2 ± 0.1 µM.
